# Reference: US11980633B2, “Method for treating cancer using a combination of DNA-damaging agents and DNA-PK inhibitors” (Vertex Pharmaceuticals Incorporated, priority 2016, dated 2024)
# What was measured:
# [1] = tested on: primary human NSCLC tumors (dissociated cells); assay: TCA: Compound B-1 with radiation (1-16 Gy), primary NSCLC tumors; assay type: cell-based; set-up: Average Bliss score: scale not given here
# Experimental: (§1) In both studies, cell viability was assessed after 6 days in culture. Statistical analysis of the combination matrix was performed to assess whether synergy, additivity, or antagonism of the combination treatments were observed.
# (§2) Materials: Primary patient samples (See Tables 16 and 17, below) were excised from mice when they reached 500 mg to 1000 mg in size and processed immediately, or after overnight shipment. Tumors were serially passaged by subcutaneous implantation of 50 mg to 150 mg fragments into the flanks of immunocompromised (nude) mice. Tumors were used within the first 5 or 7 passages.
# (§3) Tumor Chemosensitivity Assay (TCA): Primary tumor samples were grown and serially passaged in immunocompromised mice. Tumors were mechanically dissociated into small fragments (1 mm to 2 mm) with scalpels in phosphate buffered saline (PBS or RPMI) and centrifuged at 200×g for 5 minutes at room temperature in 50 mL centrifuge tubes. Samples were resuspended in 10 mL of cell dissociation reagent and enzymatically digested with mechanical agitation for 1 to 3 hours at 37° C., 5% CO2 to a single cell suspension. Ten mL of complete RPMI-1640 media was added to the cell mixture and pipetted up and down 4 to 5 times. The mixture was then passed through a 70 μm or 100 μm mesh strainer to remove undigested tumor. The filtrate was then centrifuged 200×g for 5 minutes at room temperature and resuspended in 20 mL complete RPMI-1640. This cell suspension was slowly layered onto 20 mL of room temperature Histopaque and centrifuged at 400×g for 15 minutes at room temperature without a brake. The interface was transferred to a new 50 mL centrifuge tube and 15 mL of complete RPMI-1640 was added. This suspension was centrifuged at 200×g at room temperature, and the resulting pellet was resuspended in 10 mL of complete PC-1 media, except for pancreatic tumors in which case Pancreatic Medium was used. Cells were diluted in Trypan blue, and viable cells that excluded the dye were counted. Only the larger, tumor cells were included in the cell count. Cells were diluted in complete PC-1 or Pancreatic media, as appropriate for the cells, and were plated at 15,000 to 20,000 cells per well in 100-135 μL in ultra-low attachment U-bottom plates.
# Compound Addition: For these studies, a 10 mM stock of the DNA-PK inhibitor (Compound B-1 or Compound B-2) was made in DMSO and used to add to cells from most tumors with HP D300 Digital Dispenser (Tecan US, Morrisville, NC, USA), or diluted into the appropriate media (PC-1 or pancreatic media) as a 5-10× stock and added to cells (OVX001 and ENX001, 005). PC-1, pancreatic media, and chemotherapeutics were also added so that final well volume was 150 μL. Doxorubicin was made as DMSO stock of 1 or 10 mM and added to cells for most tumors with HP D300 Digital Dispenser, or diluted into PC-1 as 5-10× stock and added to cells (OVX001 and ENX001, 005). Cisplatin (cis-diammine platinum(II), dichloride) was prepared fresh to 10 mM in warm (60° C.) distilled water and diluted in PC-1 as a 5-10× stock. […] Different starting concentrations, dose ranges, and number of doses were used for each experiment based on the response data available at the time.
# In radiation experiments, a range of 1-16 Gy was administered using a cesium-137 source (GammaCell 40 Exactor, MDS Nordion, Ontario, Canada). These experiments were designed as a 6×5 matrix in triplicate. Each point of a 4-point concentration range of 0.15, 0.73, 1.5 and 2.2 μM Compound B-1 plus a ‘no treatment’ control in triplicate were added to 6 individual plates. The matrix was then assembled by exposure of each plate to 0, 1, 2, 4, 8, or 16 Gy of radiation.
# Cells were cultured at 37° C., 5% CO2, 95% air and 100% relative humidity.
# Viability Determination: Six days after compound addition, 75 μL of CellTiterGlo (prepared according to manufacturer's protocol) was added to each well of the compound titration plates. […]
# [2] = tested on: primary human tumors (NSCLC, SCLC, pancreatic, HCC, gastric, esophageal); assay: TCA assays overall: all combination treatments with Compound B-1; assay type: cell-based
# Experimental: as §1, §2
# as §3, with “Cells were diluted in complete PC-1 or Pancreatic media, as appropriate for the cells, and were plated at 15,000 to 20,000 cells per well in 100-135 μL in ultra-low attachment U-bottom plates.” left out
compound,measurement,setting,value
CNC(=O)c1ccnc2c([C@H](C)CNc3cc(-c4cnc(C)nc4)ncn3)cccc12 [Compound B-1],tumors that showed synergy or additivity,[1]; 9 NSCLC tumors,100%
same,tumors that showed strong synergy,[1]; three of 9 NSCLC tumors,33%
same,Average Bliss score,"[1]; tumor OD26131, Lung (NSCLC)",12
same,Synergy/Additivity/Antagonism,"[1]; tumor OD26131, Lung (NSCLC)",Strongly Synergistic (greater than 10 are considered strongly synergistic)
same,Average Bliss score,"[1]; tumor OD26749, Lung (NSCLC)",7
same,Synergy/Additivity/Antagonism,"[1]; tumor OD26749, Lung (NSCLC)",Synergistic (greater than 5 are considered synergistic)
same,Average Bliss score,"[1]; tumor OD29498, Lung (NSCLC)",2
same,Synergy/Additivity/Antagonism,"[1]; tumor OD29498, Lung (NSCLC)",Additive (Values between 5 and −5 are considered additive)
same,Average Bliss score,"[1]; tumor OD33117, Lung (NSCLC)",9
same,Synergy/Additivity/Antagonism,"[1]; tumor OD33117, Lung (NSCLC)",Synergistic (greater than 5 are considered synergistic)
same,Average Bliss score,"[1]; tumor OD33966, Lung (NSCLC)",8
same,Synergy/Additivity/Antagonism,"[1]; tumor OD33966, Lung (NSCLC)",Synergistic (greater than 5 are considered synergistic)
same,Average Bliss score,"[1]; tumor OD35982, Lung (NSCLC)",5
same,Synergy/Additivity/Antagonism,"[1]; tumor OD35982, Lung (NSCLC)",Additive (Values between 5 and −5 are considered additive)
same,Average Bliss score,"[1]; tumor OD36088, Lung (NSCLC)",14
same,Synergy/Additivity/Antagonism,"[1]; tumor OD36088, Lung (NSCLC)",Strongly Synergistic (greater than 10 are considered strongly synergistic)
same,Average Bliss score,"[1]; tumor TS110310, Lung (NSCLC)",16
same,Synergy/Additivity/Antagonism,"[1]; tumor TS110310, Lung (NSCLC)",Strongly Synergistic (greater than 10 are considered strongly synergistic)
same,Average Bliss score,"[1]; tumor YAS111611, Lung (NSCLC)",1
same,Synergy/Additivity/Antagonism,"[1]; tumor YAS111611, Lung (NSCLC)",Additive (Values between 5 and −5 are considered additive)
same,tumors that showed antagonism,[2]; all TCA combinations with Compound B-1 (4/63),6%
same,combination treatments that showed additive effects,[2]; all TCA combinations with Compound B-1 (29/63),46%
same,combination treatments that demonstrated synergy or strong synergy,[2]; all TCA combinations with Compound B-1 (29/68 as printed),46%
